These results are taken from US11173151B2, “Substituted triazole derivatives and uses thereof” (BAYER AKTIENGESELLSCHAFT, priority 2017, dated 2021).

One experiment has as its target T1, human V1a receptor (Homo sapiens, UniProt P37288).
T1 construct: expressed in transfected cells; host or cells: CHO K1 (ATCC), also stably transfected with a modified aequorin
Nature of the experiment: Cellular in vitro assay for determining vasopressin receptor activity, V1a receptor cell line (CHO, aequorin luminescence). In kind it is cell-based. As to conditions: for pIC50: CHO cell line transfected with human V1a receptor, [Arg]-vasopressin at EC50 concentration, read-out: IC50 hV1a; for ratio IC50 hV2/hV1a: selectivity ratio IC50 hV2 / IC50 hV1a. A digest of the protocol:
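Cells were plated the day before in medium containing 5 μg/ml coelenterazine and kept at 37° C. Compounds at various concentrations were then added for 10 minutes. Next, [Arg]-vasopressin at EC50 was applied and light output recorded at once, yielding IC50.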

A further experiment concerns the target T2, human V2 receptor (Homo sapiens, UniProt P30518).
T2 construct: expressed in transfected cells; host or cells: CHO K1 (ATCC) expressing firefly luciferase under a CRE-responsive promoter
Nature of the experiment: Cellular in vitro assay for determining vasopressin receptor activity, V2 receptor cell line (CHO, CRE-luciferase). In kind it is cell-based. The note with it: CHO cell line transfected with human V2 receptor; [Arg8]-vasopressin at EC50 concentration; read-out: IC50 hV2.

pIC50: −log10 of the molar value.

T1 sequence (P37288 whole entry): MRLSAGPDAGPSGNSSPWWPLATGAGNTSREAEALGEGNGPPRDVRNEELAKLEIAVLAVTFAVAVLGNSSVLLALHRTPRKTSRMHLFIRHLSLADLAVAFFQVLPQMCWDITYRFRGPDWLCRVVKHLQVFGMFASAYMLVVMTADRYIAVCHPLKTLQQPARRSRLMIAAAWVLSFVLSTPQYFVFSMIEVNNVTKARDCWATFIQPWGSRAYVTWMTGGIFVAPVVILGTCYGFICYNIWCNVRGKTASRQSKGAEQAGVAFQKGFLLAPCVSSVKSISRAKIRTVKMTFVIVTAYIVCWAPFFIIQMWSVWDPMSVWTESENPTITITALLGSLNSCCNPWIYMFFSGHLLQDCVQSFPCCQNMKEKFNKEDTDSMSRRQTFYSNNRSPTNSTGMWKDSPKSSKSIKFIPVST
T2 sequence (P30518 whole entry): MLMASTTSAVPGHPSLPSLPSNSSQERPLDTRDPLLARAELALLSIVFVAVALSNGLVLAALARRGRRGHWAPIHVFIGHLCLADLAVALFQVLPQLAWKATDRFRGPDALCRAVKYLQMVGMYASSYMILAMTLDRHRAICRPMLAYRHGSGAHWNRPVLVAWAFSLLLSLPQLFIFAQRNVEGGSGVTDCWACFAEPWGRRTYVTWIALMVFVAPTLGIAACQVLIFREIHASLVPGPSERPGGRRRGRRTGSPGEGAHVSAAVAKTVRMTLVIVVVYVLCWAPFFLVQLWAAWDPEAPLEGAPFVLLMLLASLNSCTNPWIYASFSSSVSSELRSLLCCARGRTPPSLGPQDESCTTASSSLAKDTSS

A word on the pIC50: it is −log10 of the IC50, conventionally taken in molar units. As for `O=C(NCC1CC1)c1cccc(C(F)(F)F)c1-n1cnc(Cn2nc(-c3ccc(Cl)cc3)n(C[C@H](O)C(F)(F)F)c2=O)n1` [Example 419, 2-[3-({3-(4-Chlorophenyl)-5-oxo-4-[(2S)-3,3,3-trifluoro-2-hydroxypropyl]-4,5-dihydro-1H-1,2,4-triazol-1-yl}methyl)-1H-1,2,4-triazol-1-yl]-N-(cyclopropylmethyl)-3-(trifluoromethyl)benzamide], at human V1a receptor, the negative-log IC50 (pIC50) was 7.02 and the “ratio IC50 hV2/hV1a” value turned out to be 10.7. Further, at human V2 receptor, the pIC50 was 5.99.
In the case of `O=C(NCCC(F)(F)F)c1cccc(C(F)(F)F)c1-n1cnc(Cn2nc(-c3ccc(Cl)cc3)n(C[C@H](O)C(F)(F)F)c2=O)n1` [Example 421, 2-[3-({3-(4-Chlorophenyl)-5-oxo-4-[(2S)-3,3,3-trifluoro-2-hydroxypropyl]-4,5-dihydro-1H-1,2,4-triazol-1-yl}methyl)-1H-1,2,4-triazol-1-yl]-3-(trifluoromethyl)-N-(3,3,3-trifluoropropyl)benzamide], on human V1a receptor, the pIC50 is 7.66 and the “ratio IC50 hV2/hV1a” value is recorded as 16.8. Further, at human V2 receptor, the pIC50 is 6.43.
For `COC[C@@H]1CCCN1C(=O)c1cccc(C(F)(F)F)c1-n1cnc(Cn2nc(-c3ccc(Cl)cc3)n(C[C@H](O)C(F)(F)F)c2=O)n1` [Example 423, 5-(4-Chlorophenyl)-2-({1-[2-{[(2S)-2-(methoxymethyl)pyrrolidin-1-yl]carbonyl}-6-(trifluoromethyl)phenyl]-1H-1,2,4-triazol-3-yl}methyl)-4-[(2S)-3,3,3-trifluoro-2-hydroxypropyl]-2,4-dihydro-3H-1,2,4-triazol-3-one] the same measures were 7.40, 472.5 and 4.72.
On to `CC(C)(N)CNC(=O)c1cc(F)ccc1-n1cnc(Cn2nc(-c3ccc(Cl)cc3)n(C[C@H](O)C(F)(F)F)c2=O)n1` [Example 424, N-(2-Amino-2-methylpropyl)-2-[3-({3-(4-chlorophenyl)-5-oxo-4-[(2S)-3,3,3-trifluoro-2-hydroxypropyl]-4,5-dihydro-1H-1,2,4-triazol-1-yl}methyl)-1H-1,2,4-triazol-1-yl]-5-fluorobenzamide], for which, at human V1a receptor, the negative logarithm of the IC50 (pIC50) was 7.94 and the “ratio IC50 hV2/hV1a” value worked out at 230.4. Moreover, the pIC50 at human V2 receptor is 5.58.
Taken in the same sequence, the figures for `CNC(=O)c1cc(F)ccc1-n1cnc(Cn2nc(-c3ccc(Cl)cc3)n(C[C@H](O)C(F)(F)F)c2=O)n1` [Example 425, 2-[3-({3-(4-Chlorophenyl)-5-oxo-4-[(2S)-3,3,3-trifluoro-2-hydroxypropyl]-4,5-dihydro-1H-1,2,4-triazol-1-yl}methyl)-1H-1,2,4-triazol-1-yl]-5-fluoro-N-methylbenzamide] were 8.01, 10.2 and 7.00.
Taken in the same sequence, the figures for `O=C(NCC(F)(F)F)c1cc(F)ccc1-n1cnc(Cn2nc(-c3ccc(Cl)cc3)n(C[C@H](O)C(F)(F)F)c2=O)n1` [Example 426, 2-[3-({3-(4-Chlorophenyl)-5-oxo-4-[(2S)-3,3,3-trifluoro-2-hydroxypropyl]-4,5-dihydro-1H-1,2,4-triazol-1-yl}methyl)-1H-1,2,4-triazol-1-yl]-5-fluoro-N-(2,2,2-trifluoroethyl)benzamide] were 7.72, 6.6 and 6.90.
Regarding `O=C(NCC(F)(F)F)c1cc(Cl)ccc1-n1cnc(Cn2nc(-c3ccc(Cl)cc3)n(C[C@H](O)C(F)(F)F)c2=O)n1` [Example 427, 5-Chloro-2-[3-({3-(4-chlorophenyl)-5-oxo-4-[(2S)-3,3,3-trifluoro-2-hydroxypropyl]-4,5-dihydro-1H-1,2,4-triazol-1-yl}methyl)-1H-1,2,4-triazol-1-yl]-N-(2,2,2-trifluoroethyl)benzamide], the pIC50 was 7.68 at human V1a receptor and 7.14 at human V2 receptor. Besides, on human V1a receptor, the “ratio IC50 hV2/hV1a” value came out at 3.5.
For `O=C(NCC(F)(F)F)c1ncccc1-n1cnc(Cn2nc(-c3ccc(Cl)cc3)n(C[C@H](O)C(F)(F)F)c2=O)n1` [Example 428, 3-[3-({3-(4-Chlorophenyl)-5-oxo-4-[(2S)-3,3,3-trifluoro-2-hydroxypropyl]-4,5-dihydro-1H-1,2,4-triazol-1-yl}methyl)-1H-1,2,4-triazol-1-yl]-N-(2,2,2-trifluoroethyl)pyridine-2-carboxamide] the same measures were 7.39, 5.89 and 31.5.
Taken in the same sequence, the figures for `O=C(NC1CC1)c1ncccc1-n1cnc(Cn2nc(-c3ccc(Cl)cc3)n(C[C@H](O)C(F)(F)F)c2=O)n1` [Example 431, 3-[3-({3-(4-Chlorophenyl)-5-oxo-4-[(2S)-3,3,3-trifluoro-2-hydroxypropyl]-4,5-dihydro-1H-1,2,4-triazol-1-yl}methyl)-1H-1,2,4-triazol-1-yl]-N-cyclopropylpyridine-2-carboxamide] were 7.78, 5.96 and 66.7.
For `O=C(NCC1CC1)c1ncccc1-n1cnc(Cn2nc(-c3ccc(Cl)cc3)n(C[C@H](O)C(F)(F)F)c2=O)n1` [Example 432, 3-[3-({3-(4-Chlorophenyl)-5-oxo-4-[(2S)-3,3,3-trifluoro-2-hydroxypropyl]-4,5-dihydro-1H-1,2,4-triazol-1-yl}methyl)-1H-1,2,4-triazol-1-yl]-N-(cyclopropylmethyl)pyridine-2-carboxamide] the same measures were 7.35, 6.02 and 21.2.
In the case of `NC(=O)[C@H]1CC(F)(F)CN1C(=O)c1ncccc1-n1cnc(Cn2nc(-c3ccc(Cl)cc3)n(C[C@H](O)C(F)(F)F)c2=O)n1` [Example 433, 1-({3-[3-({3-(4-Chlorophenyl)-5-oxo-4-[(2S)-3,3,3-trifluoro-2-hydroxypropyl]-4,5-dihydro-1H-1,2,4-triazol-1-yl}methyl)-1H-1,2,4-triazol-1-yl]pyridin-2-yl}carbonyl)-4,4-difluoro-D-prolinamide], at human V1a receptor, the pIC50 was 7.15 and the “ratio IC50 hV2/hV1a” value is 31.0. On human V2 receptor, the pIC50 was 5.66.
Taken in the same sequence, the figures for `NC(=O)[C@@H]1CC(F)(F)CN1C(=O)c1ncccc1-n1cnc(Cn2nc(-c3ccc(Cl)cc3)n(C[C@H](O)C(F)(F)F)c2=O)n1` [Example 434, 1-({3-[3-({3-(4-Chlorophenyl)-5-oxo-4-[(2S)-3,3,3-trifluoro-2-hydroxypropyl]-4,5-dihydro-1H-1,2,4-triazol-1-yl}methyl)-1H-1,2,4-triazol-1-yl]pyridin-2-yl}carbonyl)-4,4-difluoro-L-prolinamide] were 7.09, 32.9 and 5.57.
For `O=C(c1ncccc1-n1cnc(Cn2nc(-c3ccc(Cl)cc3)n(C[C@H](O)C(F)(F)F)c2=O)n1)N1CCC(F)(F)C1` [Example 437, 5-(4-Chlorophenyl)-2-[(1-{2-[(3,3-difluoropyrrolidin-1-yl)carbonyl]pyridin-3-yl}-1H-1,2,4-triazol-3-yl)methyl]-4-[(2S)-3,3,3-trifluoro-2-hydroxypropyl]-2,4-dihydro-3H-1,2,4-triazol-3-one] the same measures were 7.39, 91.4 and 5.43.
Taken in the same sequence, the figures for `CC1(C)CN(C(=O)c2ncccc2-n2cnc(Cn3nc(-c4ccc(Cl)cc4)n(C[C@H](O)C(F)(F)F)c3=O)n2)CCO1` [Example 438, 5-(4-Chlorophenyl)-2-[(1-{2-[(2,2-dimethylmorpholin-4-yl)carbonyl]pyridin-3-yl}-1H-1,2,4-triazol-3-yl)methyl]-4-[(2S)-3,3,3-trifluoro-2-hydroxypropyl]-2,4-dihydro-3H-1,2,4-triazol-3-one] were 7.07, 103.5 and 5.05.
Turning to `O=C(NC1CC(F)(F)C1)c1ncccc1-n1cnc(Cn2nc(-c3ccc(Cl)cc3)n(C[C@H](O)C(F)(F)F)c2=O)n1` [Example 439, 3-[3-({3-(4-Chlorophenyl)-5-oxo-4-[(2S)-3,3,3-trifluoro-2-hydroxypropyl]-4,5-dihydro-1H-1,2,4-triazol-1-yl}methy)-1H-1,2,4-triazol-1-yl]-N-(3,3-difluorocyclobutyl)pyridine-2-carboxamide], on human V1a receptor, the pIC50 was 7.27 and the “ratio IC50 hV2/hV1a” value was 24.0. The pIC50 at human V2 receptor is 5.89.
With `O=C1CN(C(=O)c2ncccc2-n2cnc(Cn3nc(-c4ccc(Cl)cc4)n(C[C@H](O)C(F)(F)F)c3=O)n2)CCN1` [Example 443, 4-({3-[3-({3-(4-Chlorophenyl)-5-oxo-4-[(2S)-3,3,3-trifluoro-2-hydroxypropyl]-4,5-dihydro-1H-1,2,4-triazol-1-yl}methyl)-1H-1,2,4-triazol-1-yl]pyridin-2-yl}carbonyl)piperazin-2-one], at human V1a receptor, the pIC50 is 6.66 and the “ratio IC50 hV2/hV1a” value turned out to be 102.3. Moreover, the negative logarithm of the IC50 (pIC50) on human V2 receptor was 4.65.
For `O=C(c1ncccc1-n1cnc(Cn2nc(-c3ccc(Cl)cc3)n(C[C@H](O)C(F)(F)F)c2=O)n1)N1CCCCC1` [Example 445, 5-(4-Chlorophenyl)-2-({1-[2-(piperidin-1-ylcarbonyl)pyridin-3-yl]-1H-1,2,4-triazol-3-yl}methyl)-4-[(2S)-3,3,3-trifluoro-2-hydroxypropyl]-2,4-dihydro-3H-1,2,4-triazol-3-one] the same measures were 7.70, 182.5 and 5.44.
